# In patent US11235976B2, “Nanocarbon-iron composite system as well as composition, preparation method and use thereof” (Chongqing Lummy Pharmaceutical Co., LTD, priority 2017, dated 2022):
# Test system: subcutaneous transplantation tumors of 9 types of cancer cells
# Test: Tumor growth inhibition experiments, subcutaneous transplantation tumors
# Assay type: in vivo, mice
# Conditions: FIGS. 4-39
# Description: Cells growing in a log phase are collected, the concentration of the cell suspension is adjusted to 3×10^7 cells/mL, and the cell suspension is inoculated subcutaneously into the right upper extremities of nude mice at the inoculation dosage of 0.1 mL (about 3×10^6 cells) per mouse. When the average tumor volume of the inoculated mice reaches 100 mm^3, the tumor-bearing mice are randomly divided into the following groups (8 nude mice per group): a negative control group (0.9% sodium chloride injection), a nanocarbon control group, an iron preparation control group, a nanocarbon-iron suspension experimental group, and a cis-platinum control group (intraperitoneal injection at the dosage of 5 mg/kg). The above various drugs are injected into the tumors. The tumor volume changes are recorded, and the formula for calculating the volume is Volume=(length×the square of width)/2.
# Milky white and thick ascites is extracted from the H22 tumor-bearing mice, the concentration of the cell suspension is adjusted to be 3×10^7 cells/mL, 0.1 mL of cell suspension (about 3×10^6 cells) is inoculated subcutaneously into the right upper extremity of each of Kunming mice. When the average tumor volume of the inoculated mice reaches 100 mm^3, the tumor-bearing mice are randomly divided into the following groups (8 mice per group): a negative control group (0.9% sodium chloride injection), a nanocarbon control group, an iron preparation control group, a nanocarbon-iron suspension experimental group, and a cis-platinum control group (intraperitoneal injection at the dosage of 5 mg/kg). The above various drugs are injected into the tumors. The tumor volume changes are recorded, and the formula for calculating the volume is Volume=(length×the square of width)/2.
row,Substance,inhibition effect on growth of 9 types of tumors
1,ferrous sulfate,do not have an inhibition effect

# Test system: H22 metastatic lymph nodes
# Test: Lymph node metastasis inhibition experiment
# Assay type: in vivo, Kunming mouse
# Conditions: popliteal lymph nodes
# Description: Milky white and thick ascites is extracted from the H22 tumor-bearing mice, the concentration is adjusted to be 3×10^7 cells/mL, 0.05 mL of cell suspension (about 1.5×10^6 cells) is inoculated subcutaneously into the left hind foot pads of each Kunming mouse, and thus a lymph node metastasis mouse model is obtained. The mice are treated when the diameter of the tumor reaches 6-8 mm and there is no ulcer and necrosis. The mice are randomly divided into four groups (10 mice per group): a negative control group (0.9% sodium chloride injection), a nanocarbon control group, an iron preparation control group and a nanocarbon-iron suspension experimental group. 10 days after inoculation, the mice are killed, and popliteal lymph nodes are collected, weighed and fixed for pathological examination.
row,Substance,Weight of Lymph Node [mg]
1,ferrous sulfate,44.27 ± 20.69

# Test system: SMMC7721 liver cancer cells
# Test: Cell experiment, cell survival rate
# Assay type: cell-based
# Conditions: SMMC-7721; iron preparation alone 0.43 μg/mL; 48 h
# Description: (§1) Cells growing in a log phase are collected, the concentration of the cell suspension is adjusted, 100 μL of cell suspension is added to each well and the cells are plated (edge wells are filled with sterile PBS) at a density of 1×10^3-10^4 cells/well. The cells are incubated for 24 hours at 37° C. under the condition of 5% CO2, a nanocarbon-iron solution having a concentration gradient (nanocarbon content: 125, 62.5, 15.63 and 3.91 μg/mL; and ferric ion content: 13.65, 6.83, 1.71 and 0.43 μg/mL) is added, and three sub-wells are set. Then the cells are incubated for 48 hours at 37° C. under the condition of 5% CO2. 10 μL of CCK8 solution is added to each well and then the cells are continuously incubated for 2 hours. The absorbance of each well is measured at OD=450 nm with the microplate reader. In addition, a negative control group, nanocarbon control groups having the same concentration and iron preparation control groups having the same concentration are set.
# as §1, with “and 1” for “100”, “of a 6-well plate” for “and the cells are plated (edge wells are filled with sterile PBS)”, “3×10^4” for “1×10^3-10^4”, “1.71,” for “1.71 and”, “The” for “10 μL of CCK8 solution is added to each well and then the”, “trypsinized and counted.” for “continuously incubated for 2 hours. The absorbance of each well is measured at OD=450 nm with the microplate reader.”
row,Substance,Cell Survival Rate [%]
1,ferrous sulfate,100

# Same assay, conditions: SMMC-7721; iron preparation alone 1.71 μg/mL; 48 h
row,Substance,Cell Survival Rate [%]
1,ferrous sulfate,100

# Same assay, conditions: SMMC-7721; iron preparation alone 6.83 μg/mL; 48 h
row,Substance,Cell Survival Rate [%]
1,ferrous sulfate,100

# Same assay, conditions: SMMC-7721; iron preparation alone 13.65 μg/mL; 48 h
row,Substance,Cell Survival Rate [%]
1,ferrous sulfate,97.46

# Test system: SKOV3 ovarian cancer cells
# Test: Cell experiment, cell survival rate
# Assay type: cell-based
# Conditions: iron preparation alone 0.43 μg/mL, 48 h
# Description: as §1
# as §1, with “and 1” for “100”, “of a 6-well plate” for “and the cells are plated (edge wells are filled with sterile PBS)”, “3×10^4” for “1×10^3-10^4”, “1.71,” for “1.71 and”, “The” for “10 μL of CCK8 solution is added to each well and then the”, “trypsinized and counted.” for “continuously incubated for 2 hours. The absorbance of each well is measured at OD=450 nm with the microplate reader.”
row,Substance,Cell Survival Rate [%]
1,ferrous sulfate,97.89

# Same assay, conditions: iron preparation alone 1.71 μg/mL, 48 h
row,Substance,Cell Survival Rate [%]
1,ferrous sulfate,100

# Same assay, conditions: iron preparation alone 6.83 μg/mL, 48 h
row,Substance,Cell Survival Rate [%]
1,ferrous sulfate,95.78

# Same assay, conditions: iron preparation alone 13.65 μg/mL, 48 h
row,Substance,Cell Survival Rate [%]
1,ferrous sulfate,96.47

# Test system: Hela cervical cancer cells
# Test: Cell experiment, cell survival rate
# Assay type: cell-based
# Conditions: iron preparation alone 0.43 μg/mL, 48 h
# Description: as §1
# as §1, with “and 1” for “100”, “of a 6-well plate” for “and the cells are plated (edge wells are filled with sterile PBS)”, “3×10^4” for “1×10^3-10^4”, “1.71,” for “1.71 and”, “The” for “10 μL of CCK8 solution is added to each well and then the”, “trypsinized and counted.” for “continuously incubated for 2 hours. The absorbance of each well is measured at OD=450 nm with the microplate reader.”
row,Substance,Cell Survival Rate [%]
1,ferrous sulfate,100

# Same assay, conditions: iron preparation alone 1.71 μg/mL, 48 h
row,Substance,Cell Survival Rate [%]
1,ferrous sulfate,100

# Same assay, conditions: iron preparation alone 6.83 μg/mL, 48 h
row,Substance,Cell Survival Rate [%]
1,ferrous sulfate,100

# Same assay, conditions: iron preparation alone 13.65 μg/mL, 48 h
row,Substance,Cell Survival Rate [%]
1,ferrous sulfate,93.99

# Test system: MDA-MB-231 breast cancer cells
# Test: Cell experiment, cell survival rate
# Assay type: cell-based
# Conditions: iron preparation alone 0.43 μg/mL, 48 h
# Description: as §1
# as §1, with “and 1” for “100”, “of a 6-well plate” for “and the cells are plated (edge wells are filled with sterile PBS)”, “3×10^4” for “1×10^3-10^4”, “1.71,” for “1.71 and”, “The” for “10 μL of CCK8 solution is added to each well and then the”, “trypsinized and counted.” for “continuously incubated for 2 hours. The absorbance of each well is measured at OD=450 nm with the microplate reader.”
row,Substance,Cell Survival Rate [%]
1,ferrous sulfate,100

# Same assay, conditions: iron preparation alone 1.71 μg/mL, 48 h
row,Substance,Cell Survival Rate [%]
1,ferrous sulfate,100

# Same assay, conditions: iron preparation alone 6.83 μg/mL, 48 h
row,Substance,Cell Survival Rate [%]
1,ferrous sulfate,100

# Same assay, conditions: iron preparation alone 13.65 μg/mL, 48 h
row,Substance,Cell Survival Rate [%]
1,ferrous sulfate,100

# Test system: SGC-7901 stomach cancer cells
# Test: Cell experiment, cell survival rate
# Assay type: cell-based
# Conditions: iron preparation alone 0.43 μg/mL, 48 h
# Description: as §1
# as §1, with “and 1” for “100”, “of a 6-well plate” for “and the cells are plated (edge wells are filled with sterile PBS)”, “3×10^4” for “1×10^3-10^4”, “1.71,” for “1.71 and”, “The” for “10 μL of CCK8 solution is added to each well and then the”, “trypsinized and counted.” for “continuously incubated for 2 hours. The absorbance of each well is measured at OD=450 nm with the microplate reader.”
row,Substance,Cell Survival Rate [%]
1,ferrous sulfate,100

# Same assay, conditions: iron preparation alone 1.71 μg/mL, 48 h
row,Substance,Cell Survival Rate [%]
1,ferrous sulfate,93.78

# Same assay, conditions: iron preparation alone 6.83 μg/mL, 48 h
row,Substance,Cell Survival Rate [%]
1,ferrous sulfate,98.42

# Same assay, conditions: iron preparation alone 13.65 μg/mL, 48 h
row,Substance,Cell Survival Rate [%]
1,ferrous sulfate,100

# Test system: murine liver cancer H22 cells
# Test: Cell experiment, cell survival rate
# Assay type: cell-based
# Conditions: iron preparation alone 0.43 μg/mL, 48 h
# Description: as §1
# as §1, with “and 1” for “100”, “of a 6-well plate” for “and the cells are plated (edge wells are filled with sterile PBS)”, “3×10^4” for “1×10^3-10^4”, “1.71,” for “1.71 and”, “The” for “10 μL of CCK8 solution is added to each well and then the”, “trypsinized and counted.” for “continuously incubated for 2 hours. The absorbance of each well is measured at OD=450 nm with the microplate reader.”
row,Substance,Cell Survival Rate [%]
1,ferrous sulfate,100
